Data published in the supplement of paper PMC10307832.

Tests used:
Assay in all cases: relative viability (nuclei count vs DMSO), 5 days (fraction); higher = more cells survive
A-427 = tested on: A-427
Summary of the method: (§1)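 Nuclei were stained with Hoechst during a one-step fixation (final 0.05% Triton X-100, 1% formaldehyde, 1 ug/ml Hoechst) carried out 5 days after dosing, then counted on 4× images. The cells, lung cancer lines in 1536-well plates, had been dosed by pin tool the day after seeding with one drug alone or a fixed anchor-drug dose plus five library-drug doses (not always all listed) in √10 steps. Relative viability is the nuclei count in treated wells divided by that in vehicle wells, and each value is the median of duplicate plates.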

CAL-12T = tested on: CAL-12T
Summary of the method: as §1

COR-L 105 = tested on: COR-L 105
Summary of the method: as §1

EMC-BAC-2 = tested on: EMC-BAC-2
Summary of the method: as §1

HARA = tested on: HARA
Summary of the method: as §1

HCC-366 = tested on: HCC-366
Summary of the method: as §1

HCC-827 = tested on: HCC-827
Summary of the method: as §1

HOP-62 = tested on: HOP-62
Summary of the method: as §1

LCLC-103H = tested on: LCLC-103H
Summary of the method: as §1

NCI-H1437 = tested on: NCI-H1437
Summary of the method: as §1

NCI-H1755 = tested on: NCI-H1755
Summary of the method: as §1

NCI-H1792 = tested on: NCI-H1792
Summary of the method: as §1

NCI-H1915 = tested on: NCI-H1915
Summary of the method: as §1

NCI-H2009 = tested on: NCI-H2009
Summary of the method: as §1

NCI-H2228 = tested on: NCI-H2228
Summary of the method: as §1

NCI-H23 = tested on: NCI-H23
Summary of the method: as §1

NCI-H460 = tested on: NCI-H460
Summary of the method: as §1

NCI-H727 = tested on: NCI-H727
Summary of the method: as §1

SK-LU-1 = tested on: SK-LU-1
Summary of the method: as §1

SW 1573 = tested on: SW 1573
Summary of the method: as §1

**Q.** Which results are given for `Nc1ccn([C@@H]2O[C@H](CO)[C@@H](O)[C@@H]2O)c(=O)n1` [Cytarabine] + C[C@@H](Oc1cc(-c2cnn(C3CCNCC3)c2)cnc1N)c1c(Cl)ccc(F)c1Cl [Crizotinib] (partner 1 µM)?
**A.** relative viability (A-427; first compound 0.005 µM): 0.605; relative viability (A-427; first compound 0.01581 µM): 0.414; relative viability (A-427; first compound 0.05 µM): 0.149; relative viability (A-427; first compound 0.1581 µM): 0.172; relative viability (A-427; first compound 0.5 µM): 0.173; relative viability (CAL-12T; first compound 0.005 µM): 0.413; relative viability (CAL-12T; first compound 0.01581 µM): 0.753; relative viability (CAL-12T; first compound 0.05 µM): 0.703; relative viability (CAL-12T; first compound 0.1581 µM): 0.511; relative viability (CAL-12T; first compound 0.5 µM): 0.153; relative viability (COR-L 105; first compound 0.005 µM): 0.657; relative viability (COR-L 105; first compound 0.01581 µM): 0.725; relative viability (COR-L 105; first compound 0.05 µM): 0.511; relative viability (COR-L 105; first compound 0.1581 µM): 0.393; relative viability (COR-L 105; first compound 0.5 µM): 0.256; relative viability (EMC-BAC-2; first compound 0.005 µM): 0.592; relative viability (EMC-BAC-2; first compound 0.01581 µM): 0.574; relative viability (EMC-BAC-2; first compound 0.05 µM): 0.472; relative viability (EMC-BAC-2; first compound 0.1581 µM): 0.242; relative viability (EMC-BAC-2; first compound 0.5 µM): 0.185; relative viability (HARA; first compound 0.005 µM): 1.01; relative viability (HARA; first compound 0.01581 µM): 0.682; relative viability (HARA; first compound 0.05 µM): 0.333; relative viability (HARA; first compound 0.1581 µM): 0.223; relative viability (HARA; first compound 0.5 µM): 0.169; relative viability (HCC-366; first compound 0.005 µM): 0.405; relative viability (HCC-366; first compound 0.01581 µM): 0.43; relative viability (HCC-366; first compound 0.05 µM): 0.216; relative viability (HCC-366; first compound 0.1581 µM): 0.026; relative viability (HCC-366; first compound 0.5 µM): 0.0284; relative viability (HCC-827; first compound 0.005 µM): 0.593; relative viability (HCC-827; first compound 0.01581 µM): 0.478; relative viability (HCC-827; first compound 0.05 µM): 0.477; relative viability (HCC-827; first compound 0.1581 µM): 0.197; relative viability (HCC-827; first compound 0.5 µM): 0.249; relative viability (HOP-62; first compound 0.005 µM): 0.766; relative viability (HOP-62; first compound 0.01581 µM): 0.49; relative viability (HOP-62; first compound 0.05 µM): 0.379; relative viability (HOP-62; first compound 0.1581 µM): 0.0643; relative viability (HOP-62; first compound 0.5 µM): 0.0736; relative viability (LCLC-103H; first compound 0.005 µM): 0.942; relative viability (LCLC-103H; first compound 0.01581 µM): 1.03; relative viability (LCLC-103H; first compound 0.05 µM): 1.07; relative viability (LCLC-103H; first compound 0.1581 µM): 1.03; relative viability (LCLC-103H; first compound 0.5 µM): 0.977; relative viability (NCI-H1437; first compound 0.005 µM): 0.576; relative viability (NCI-H1437; first compound 0.01581 µM): 0.817; relative viability (NCI-H1437; first compound 0.05 µM): 0.472; relative viability (NCI-H1437; first compound 0.1581 µM): 0.258; relative viability (NCI-H1437; first compound 0.5 µM): 0.156; relative viability (NCI-H1755; first compound 0.005 µM): 0.788; relative viability (NCI-H1755; first compound 0.01581 µM): 0.761; relative viability (NCI-H1755; first compound 0.05 µM): 0.565; relative viability (NCI-H1755; first compound 0.1581 µM): 0.265; relative viability (NCI-H1755; first compound 0.5 µM): 0.286; relative viability (NCI-H1792; first compound 0.005 µM): 0.624; relative viability (NCI-H1792; first compound 0.01581 µM): 0.882; relative viability (NCI-H1792; first compound 0.05 µM): 0.861; relative viability (NCI-H1792; first compound 0.1581 µM): 0.53; relative viability (NCI-H1792; first compound 0.5 µM): 0.465; relative viability (NCI-H1915; first compound 0.005 µM): 0.888; relative viability (NCI-H1915; first compound 0.01581 µM): 0.882; relative viability (NCI-H1915; first compound 0.05 µM): 0.686; relative viability (NCI-H1915; first compound 0.1581 µM): 0.393; relative viability (NCI-H1915; first compound 0.5 µM): 0.333; relative viability (NCI-H2009; first compound 0.005 µM): 1.02; relative viability (NCI-H2009; first compound 0.01581 µM): 1.01; relative viability (NCI-H2009; first compound 0.05 µM): 0.955; relative viability (NCI-H2009; first compound 0.1581 µM): 0.884; relative viability (NCI-H2009; first compound 0.5 µM): 0.298; relative viability (NCI-H2228; first compound 0.005 µM): 0.373; relative viability (NCI-H2228; first compound 0.01581 µM): 0.31; relative viability (NCI-H2228; first compound 0.05 µM): 0.218; relative viability (NCI-H2228; first compound 0.1581 µM): 0.124; relative viability (NCI-H2228; first compound 0.5 µM): 0.151; relative viability (NCI-H23; first compound 0.005 µM): 0.458; relative viability (NCI-H23; first compound 0.01581 µM): 0.369; relative viability (NCI-H23; first compound 0.05 µM): 0.311; relative viability (NCI-H23; first compound 0.1581 µM): 0.226; relative viability (NCI-H23; first compound 0.5 µM): 0.209; relative viability (NCI-H460; first compound 0.005 µM): 0.77; relative viability (NCI-H460; first compound 0.01581 µM): 0.851; relative viability (NCI-H460; first compound 0.05 µM): 0.144; relative viability (NCI-H460; first compound 0.1581 µM): 0.0229; relative viability (NCI-H460; first compound 0.5 µM): 0.0238; relative viability (NCI-H727; first compound 0.005 µM): 0.724; relative viability (NCI-H727; first compound 0.01581 µM): 0.579; relative viability (NCI-H727; first compound 0.05 µM): 0.636; relative viability (NCI-H727; first compound 0.1581 µM): 0.359; relative viability (NCI-H727; first compound 0.5 µM): 0.3; relative viability (SK-LU-1; first compound 0.005 µM): 0.957; relative viability (SK-LU-1; first compound 0.01581 µM): 0.83; relative viability (SK-LU-1; first compound 0.05 µM): 0.694; relative viability (SK-LU-1; first compound 0.1581 µM): 0.605; relative viability (SK-LU-1; first compound 0.5 µM): 0.398; relative viability (SW 1573; first compound 0.005 µM): 0.83; relative viability (SW 1573; first compound 0.01581 µM): 0.868; relative viability (SW 1573; first compound 0.05 µM): 0.864; relative viability (SW 1573; first compound 0.1581 µM): 0.412; relative viability (SW 1573; first compound 0.5 µM): 0.179
